PMC7822874, “Chemoprotective antimalarials identified through quantitative high-throughput screening of Plasmodium blood and liver stage parasites” (Scientific Reports, 2021)
Where two headings read alike, the source gives them in different places.

Assays:
Type in all cases: cell-based, Plasmodium falciparum
[1] = system: P. falciparum Dd2 Cytb V259L; assay: SYBR Green ABS proliferation assay, NCGC00473217 selected clone F06; conditions: Plasmodium falciparum
Protocol: (§1) As resistance selection studies implicated the parasite cytochrome bc1 complex in mediating reduced parasite susceptibility to both NCGC00473217 and NCGC00374598, we leveraged these drug-selected parasites to test for altered drug response to a panel of antimalarial compounds.
(§2) The P. falciparum parasite Dd2 line was cultured in vitro using standard conditions. […] Tissue culture flasks and assay plates were incubated at 37 °C under a gas mixture of 5% CO2, 5% O2 and 90% N2. […] Significant differences were assessed using two-sided Student’s t-tests. All HTS assays were stopped and read at 72 h. Percent response values represent relative growth as judged by SYBR Green-I fluorescence intensity values normalized to controls.
(§3) Fresh uninfected RBCs (0.5% hematocrit) were added on day 7 and media was changed every other day. […] Resistant parasites were maintained under drug media at a volume of 50 mL until a high parasitemia (> 5%) was achieved. Aliquots of the bulk resistant cultures were frozen in cryovials before cloning by limiting dilution in 96-well plates (seeded at 0.25 or 0.5 parasites/well)[70]. After 3 weeks of cloning, we screened for positive wells by flow cytometry with SYBR Green-stained cells. […] Parasites were harvested by saponin lysis at the trophozoite stage and genomic DNA was extracted using the QIAamp DNA Blood Midi Kit (Qiagen, Germantown, MD)[71].

[2] = system: P. falciparum Dd2 (clone B2) asexual blood stage parasites; assay: P. falciparum Dd2 asexual blood stage SYBR Green-I 72 h proliferation assay (qHTS); conditions: Plasmodium falciparum, DD2, Dd2 parental; Hill fit, averaged from three independent replicates; top concentration 29 µM; read-out: Average AC50 (Log[M]), Dd2 (converted)
[3] = system: P. falciparum Dd2 Cytb A122D; assay: SYBR Green ABS proliferation assay, NCGC00473217 selected clone F12; conditions: Plasmodium falciparum
Protocol: as §1, §2, §3

[4] = system: P. falciparum Dd2 Cytb G131S; assay: SYBR Green ABS proliferation assay, NCGC00374598 selected clone C11; conditions: Plasmodium falciparum
Protocol: as §1, §2, §3

[5] = system: P. falciparum Dd2 Cytb F123L; assay: SYBR Green ABS proliferation assay, NCGC00473217 selected clone G08; conditions: Plasmodium falciparum
Protocol: as §1, §2, §3

[6] = DD2, […], averaged from three independent replicates, top concentration 29 µM, read-out: Average AC50 (Log[M]), NCGC00473217 clone F06 (Cytb V259L) (converted)
[7] = DD2, […], averaged from three independent replicates, top concentration 29 µM, read-out: Average AC50 (Log[M]), NCGC00473217 clone F12 (Cytb A122D) (converted)
[8] = DD2, […], averaged from three independent replicates, top concentration 29 µM, read-out: Average AC50 (Log[M]), NCGC00374598 clone C11 (Cytb G131S) (converted)
[9] = DD2, […], averaged from three independent replicates, top concentration 29 µM, read-out: Average AC50 (Log[M]), NCGC00473217 clone G08 (Cytb F123L) (converted)
[10] = DD2, cytochrome b mutant line, second value triple, c6, […], read-out: log AC50, mean (converted)
[11] = DD2, cytochrome b mutant line, fifth value triple, c15, […], read-out: log AC50, mean (converted)
[12] = DD2, cytochrome b mutant line, fourth value triple, c12, […], read-out: log AC50, mean (converted)
[13] = DD2, cytochrome b mutant line, third value triple, c9, […], read-out: log AC50, mean (converted)

Structure (SMILES) | AC50 [1, 6] [M] | AC50 [2] [M] | AC50 [3, 7] [M] | AC50 [4, 8] [M] | AC50 [5, 9] [M] | also measured
CCCN1C(CC(C)C)=N[S+](=O)([O-])c2cc(NC(=O)C3CCCO3)ccc21 (stereo not drawn) [NCGC00521155-01] | 5.97e-06 | 1.26e-05 | 8.93e-06 | – | – | –
CCCN1C(CC(C)C)=N[S+](=O)([O-])c2cc(NC(=O)c3ccsc3)ccc21 [NCGC00521157-01] | 1.34e-06 | 2e-06 | 8.93e-07 | 2.08e-06 | – | –
CCCN1C(CC(C)C)=N[S+](=O)([O-])c2cc(NC(=O)c3ccc(-c4ccccc4)cc3)ccc21 [NCGC00521159-01] | 7.1e-06 | 8.93e-06 | 8.93e-06 | 7.1e-06 | – | –
CCCN1C(CC(C)C)=N[S+](=O)([O-])c2cc(NC(=O)c3ccc(-c4ccccc4)o3)ccc21 [NCGC00521160-01] | 6.32e-06 | – | 3.17e-06 | – | 5.02e-06 | –
CCCN1C(CC(C)C)=N[S+](=O)([O-])c2cc(N[S+](=O)([O-])c3cccs3)ccc21 [NCGC00521163-01] | 1.59e-05 | 1.78e-05 | 8.93e-06 | – | 1.12e-05 | –
CCCN1C(CC(C)C)=N[S+](=O)([O-])c2cc(NC(=O)c3c(C)noc3C)ccc21 [NCGC00521866-01] | – | 1.78e-05 | 7.52e-06 | 1e-05 | 2.52e-06 | –
CCCN1C(CC(C)C)=N[S+](=O)([O-])c2cc(N[S+](=O)([O-])c3ccc(F)cc3)ccc21 [NCGC00521879-01] | – | – | – | – | 6.32e-07 | –
CCCN1C(CC(C)C)=N[S+](=O)([O-])c2cc(NC(=O)c3cc4ccccc4o3)ccc21 [NCGC00521880-01] | 4.48e-07 | – | 3.99e-06 | – | 1.34e-06 | –
CCCN1C(C)=N[S+](=O)([O-])c2cc(NC(=O)c3ccccc3)ccc21 [NCGC00522605-01] | – | 1e-05 | – | 2e-06 | 3.56e-07 | –
CCCN1C(CC(C)C)=N[S+](=O)([O-])c2cc(NC(=O)c3ccc(OC)cc3)ccc21 [NCGC00531533-02] | 1e-06 | 2.52e-06 | – | 1.47e-06 | 1e-06 | –
CCCN1C(CC(C)C)=N[S+](=O)([O-])c2cc(NC(=O)c3ccc(OC(F)(F)F)cc3)ccc21 [NCGC00531538-01] | – | 1.26e-06 | 1.59e-06 | – | 1.78e-05 | –
CCCN1C(CC(C)C)=N[S+](=O)([O-])c2cc(NC(=O)c3ccc(F)c(F)c3)ccc21 [NCGC00531540-01] | – | 5.22e-06 | 3.99e-07 | 7.96e-07 | 7.1e-07 | –
CCCN1C(CC(C)C)=N[S+](=O)([O-])c2cc(NC(=O)c3ccc(C(F)(F)F)cc3)ccc21 [NCGC00531759-01] | 8.93e-07 | – | 8.93e-10 | 2.52e-06 | – | –
CC(C)CC1=N[S+](=O)([O-])c2cc(NC(=O)c3cccs3)ccc2N1 [NCGC00532401-01] | – | – | – | – | – | AC50 [4, 10]: 2.82e-07 M; AC50 [5, 11]: 2.52e-09 M; AC50 [3, 12]: 7.1e-06 M
CC(C)CC1=N[S+](=O)([O-])c2cc(NC(=O)c3ccc(F)cc3)ccc2N1 [NCGC00532402-01] | – | – | – | – | – | AC50 [1, 13]: 3.99e-07 M; AC50 [3, 12]: 1.12e-06 M
O=C(Nc1ccc2c(c1)[S+](=O)([O-])N=C1CCCN12)c1cccs1 [NCGC00537660-01] | – | – | – | – | – | AC50 [5, 11]: 2e-09 M
O=C(Nc1ccc2c(c1)[S+](=O)([O-])N=C1CCCN12)c1ccc(F)cc1 [NCGC00537667-01] | – | – | – | – | – | AC50 [1, 13]: 1.59e-05 M; AC50 [4, 10]: 1.78e-05 M; AC50 [3, 12]: 1e-05 M
CC(C)CC1=N[S+](=O)([O-])c2cc(NC(=O)c3ccc(F)s3)ccc2N1C [NCGC00651708-01] | – | – | – | – | – | AC50 [4, 10]: 2.99e-06 M; AC50 [3, 12]: 2.11e-06 M
CN1C(CC2CCCCC2)=N[S+](=O)([O-])c2cc(NC(=O)c3ccc(F)s3)ccc21 [NCGC00651709-01] | – | – | – | – | – | AC50 [4, 10]: 5.96e-06 M; AC50 [5, 11]: 1.68e-05 M; AC50 [3, 12]: 5.31e-06 M
